Test results taken from US12031150B2, “Methods, compositions and kits for increasing genome editing efficiency” (Vertex Pharmaceuticals Incorporated, priority 2016, dated 2024).
Several values for one entry are separate records, joined by “and”; a condition that tells them apart may be missing. Equal values may be shown once. Entries after “also recorded” stand apart in the source; their conditions may differ.

Assays:
[1] = tested on: HDR repair pathway in the HEK293-EGIP cell line; assay: Traffic light reporter (TLR) assay, HDR efficiency by FACS (GFP positive cells); assay type: cell-based, human; settings: for FACS Analysis - Percent HDR enhancement (gRNA-Cas9 + donor), Mean / FACS Analysis - Percent HDR enhancement (gRNA-Cas9 + donor), single replicate: 2.5 uM compound, HEK293-EGIP; for FACS Analysis - Percent HDR enhancement (gRNA-Cas9 + donor), Mean: mean of three technical replicates; for FACS Analysis - Percent HDR enhancement (gRNA-Cas9 + donor), single replicate: technical replicates 1-3 of one experiment; for fold increase in the amount of CRISPR-genome edited cells (HDR enhancement): compared to transfection in the absence of compound, Table 1, FIG. 2C; for GFP positive cells after transfection of donor repair template and gRNA-Cas9 (qualitative): FIG. 2A FACS dot plots
Text: Traffic light reporter (TLR) assay: The HEK293-EGIP (Enhanced Green Fluorescent inhibited Protein) stable cell line was purchased from System Biosciences (SBI). The HEK293-EGIP cell line harbors a disrupted GPP coding sequence with a stop codon and a 53-bp genomic fragment from the AAVS1 locus. Cells were maintained in DMEM (Life Technologies, cat. no. 10313-039) with high glucose (Life Technologies, cat. no. 10313-039) supplemented with 10% heat-inactivated FBS (Fetal Bovine Serum, Expression Systems Inc.), Glutamax and Penicillin+Streptomycin and cultured at 37° C. and 5% CO2.
Cell transfection and NHEJ inhibitor treatment: The HEK293-EGIP stable cells were transfected with the two-in-one gRNA/CRISPR-Cas9 dual plasmid vector, plasmid repair donor (both plasmids from System Biosciences). Transfection was carried out using the Amaxa nucleofector system (Lonza) following manufacturer's protocol. After 16 hours, cells were treated with Compound 1 and Scr7 (Excess Bioscience; no. M60082-2s) at various concentrations, including 1 μM, 2.5 μM, 5 μM and 10 μM of compound. The structure of Scr7 is shown as follows:
Cell Sorting and Flow Cytometry: For flow cytometry analysis, HEK293 cells were trypsinized and resuspended in PBS/1% BSA FACS buffer and analyzed with a Fortessa flow cytometer (Becton Dickinson). A portion of cells were centrifuged and used for the isolation of genomic DNA.
Assays were performed to ascertain HDR efficiency in HEK293-EGIP cells. To this end, a bicistronic construct was used that targets the human AAVS1 locus (FIG. 1A). The bicistronic vector system co-expresses human codon optimized Cas9 driven by the EF1 promoter as well as custom guide RNA (gRNA) consisting of a chimeric crRNA-tracrRNA transcript driven by the Hl promoter. The hspCas9 contains two nuclear localization signals (NLS) at the N-terminus and C-terminus to ensure efficient import of the hspCas9 protein into the nucleus. The hspCas9 open reading frame (ORF) is followed by a regulatory element called WPRE (Woodchuck virus post-transcriptional regulatory element) to boost gene expression and stabilize the mRNA transcript.
The engineered human cell line, EGIP HEK293 was used to monitor HDR efficiency using the bicistronic construct described above and in FIG. 1A. The EGIP HEK293 reporter cell line was purchased from SBI. The HEK293-EGIP cell line harbors a disrupted GFP coding sequence with a stop codon and a 53-bp genomic fragment from the AAVS1 locus. The stable line was generated by lentiviral infection of 293T cells with an EF1alpha promoter to drive the expression of eGFP followed by puromycin selection. The eGFP sequence was modified to insert a 56 nucleotide insert (uppercase) from the human AAVS1 safe harbor site. This sequence contains a stop codon (TAA in red) after amino acid T109 in the eGFP translated sequence. The guide sequences targeted are in bold letters. Upon transfection with the guide and donor, the AAVS1 site within the broken eGFP was cut and the donor construct provided a homologous sequence to repair the eGFP, by removing the stop codon and the AAVS1 insert. Edited cells which had undergone HDR donor repair will generate GFP positive cells. Accordingly, co-transfecting Cas9, gRNA targeting AAVS1 and a AAVS1/EGFP rescue donor restored the sequence by HDR to give GFP+ cells.
The population of GFP positive cells was directly proportional with the efficiency of the homology directed repair (FIG. 1B).
For these assays, two-in-one Cas9-sgRNAs and eGFP donor template vectors were introduced into the HEK293 EGIP cells by electroporation using the Amaxa nucleofector (Lonza) to drive the synthesis of Cas9-sgRNAs and the eGFP donor template. Compounds were added 16 h post transfection followed by media change 48 hours later. Cells were then allowed to propagate for an additional 72 hours before FACS analysis. […]

[2] = tested on: HDR efficiency in HEK-293 EGIP cells; assay: PCR genotyping and gel densitometry quantification of HDR efficiency; assay type: cell-based, human; settings: HEK293-EGIP cells nucleofected with donor template and Cas9-sgRNA; for HDR Editing Efficiency, replicate 1 hdr 1 / HDR Editing Efficiency, replicate 2 hdr 2 / HDR Editing Efficiency, replicate 3 hdr 3 / HDR Editing Efficiency, replicate 4 hdr 4: PCR band densitometry; for HDR Editing Efficiency, Average: average of replicates 1-4
Text: Genomic DNA isolation, PCR Genotyping, and Gel Quantification: Specially designed PCR primer pairs provided another means to assess HDR-mediated genome editing to obtain functional eGFP positive cells. The genotyping PCR primer pair is shown below, corresponding to SEQ ID NOs: 6 and 7. A 219 bp PCR product corresponds to unmodified cells and a 163 bp nucleotide corresponds to modification through HDR. Intensity of these bands on a >2.5% gel allows for estimation of HDR by densitometry using a Bio-Imager. The technique allows for the relative ranking of improvement of HDR by inhibitors. Intensities measured for each lane were normalized by calculating the ratios of PCR bands corresponding to ‘insertions’ divided by ‘total’ (inserted and unmodified). The fold-change was calculated by comparing the ratio of insertions with compound over that without compound.
Another series of experiments compared increase in HDR efficiency following contact with either Scr7 or Compound 1, a DNAPK inhibitor. For these experiments, HEK293-EGIP cells were nucleofected with donor template only or donor template and Cas9-sgRNA. To test the ability of Scr7 and Compound 1 to enhance HDR editing, cells that had been nucleofected with either donor template alone, or donor template and Cas9-sgRNA were administered either Scr7 or Compound 1.
HDR recombination status was ascertained by traditional “end-point” PCR primer genotyping and quantitation based on agarose band intensities. The primers produced distinct amplicons: a 219 bp nucleotide band corresponded to unmodified cells and a 163 bp nucleotide product for HDR event. Intensity of these bands on a >2.5% gel allows for estimation of HDR by densitometry using a Bio-Imager. The technique allows for the relative ranking of conditions for improvement of HDR by inhibitors of NHEJ. The genotyping PCR primer pairs for these assays is shown below.

[3] = tested on: Serpin A1 gene in Huh7 hepato cellular carcinoma cells; assay: SerpinA1 gene editing assay (KpnI site introduction, PCR and Kpn digest); assay type: cell-based; settings: Huh7 cells nucleofected with gRNA, Cas9 protein, donor repair template; 2.5 pM Compound 1 for three days; vs DMSO; FIG. 5
Protocol: Assays were performed to ascertain the ability of a DNAPK inhibitor to allow for the editing of a target gene. For these assays, the editing of the Serpin A1 gene from M to Z form was assessed. To this end, Huh7 hepato cellular carcinoma cells were nucleofected with gRNA and Cas9 protein, with or without a donor repair template in which a KpnI site was introduced. The nucleofected cells were then cultured in the presence of DMSO or 2.5 pM Compound 1 for three days, following which, the genomic DNA was amplified and assessed for the introduction of the Kpn site.
The assay works as follows: when the SerpinA1 gene is edited, Kpn endonuclease is able to digest the gene fragment, resulting in the appearance of a digested band on a gel only when the SerpinA1 gene is edited. Conversely, when the SerpinA1 is not edited, the Kpn endonuclease is not able cut the gene fragment, and thus there will not be an appearance of a new, digested band on a gel.

[4] = tested on: HDR repair pathway in the HEK293-EGIP cell line; assay: Traffic light reporter (TLR) assay, HDR efficiency by FACS (GFP positive cells); assay type: cell-based, human; settings: for increase in the amount of CRISPR-genome edited HEK-EGIP cells: 2.5 μM, 24 hours, in comparison to the gRNA-Cas9 and donor template condition only, FIG. 2A; for GFP positive cells: flow cytometry 10 days post transfection, 10 μM, FIG. 4

Row | Compound | FACS Analysis - Percent HDR enhancement (gRNA-Cas9 + donor), Mean [1] | FACS Analysis - Percent HDR enhancement (gRNA-Cas9 + donor), single replicate [1] | fold increase in the amount of CRISPR-genome edited cells (HDR enhancement) ([1]; 2.5 μM) | fold better HDR enhancement compared to transfection with Scr7 ([1]; 2.5 μM, two separate experiments in triplicates, FIGS. 2B and 2C) | GFP positive cells after transfection of donor repair template and gRNA-Cas9 (qualitative) [1] | HDR Editing Efficiency, replicate 1 hdr 1 [2] | HDR Editing Efficiency, replicate 2 hdr 2 [2] | HDR Editing Efficiency, replicate 3 hdr 3 [2] | HDR Editing Efficiency, replicate 4 hdr 4 [2] | HDR Editing Efficiency, Average [2] | gene editing of the SerpinA1 gene (introduction of Kpn site, digested band on gel) [3] | increase in the amount of CRISPR-genome edited HEK-EGIP cells [4] | fold increase in HDR enhancement compared to SCR7 ([1]; 10 μM Compound 3, experiments in triplicates, compared to transfection in the presence of SCR7) | GFP positive cells [4]
1 | CNC(=O)c1ccnc2c([C@H](C)CNc3cc(-c4cnc(C)nc4)ncn3)cccc12 [Compound 1, (5)-N-methyl-8-(1-((2′-methyl-[4,5′-bipyrimidin]-6-yl)amino)propan-2-yl)quinoline-4-carboxamide] | 0.64% | 0.44% and 6.82% and 0.65% | ~4.5 fold | 2 fold | increase in GFP positive cells | 8.4 and 4.3 and 4.9 | 29 and 27.4 (2×) | 27.5 and 58.3 and 29.8 | 27.6 and 40 and 25.1 | 23.125 and 32.5 and 21.8 | allowed for gene editing in comparison to the DMSO condition; also recorded: resulted in gene editing of the SerpinA1 gene | approximately 83% | – | –
2 | CNC(=O)c1ccnc2c([C@H](C)CNc3cc(-c4ccc(C)nc4)ncn3)cccc12 [Compound 3] | – | – | – | – | – | – | – | – | – | – | – | – | about 8 fold | 4%
3 | Oc1nc(S)nc(/N=C/c2ccccc2)c1/N=C/c1ccccc1 [Scr7, reference compound] | 0.32% | 0.16% and 0.62% and 0.19% | ~2.3 fold | – | increase in GFP positive cells | 1.3 and 14.1 and 5.8 | 18.2 and 22.7 and 21.8 | 16.6 and 20.2 and 21.3 | 16.4 and 28.1 and 23 | 13.125 and 21.275 and 17.975 | – | approximately 30% | – | about 0.5%
